According to patent US20060165722A1 (priority 2005, published 2006):
Entries after “also recorded” stand apart in the source; their conditions may differ.

Key:
[1] = test system: tetanus toxin; parameters: species or system mice; settings: mouse, in vivo
[2] = test system: C57BL/6 female mice; settings: mouse, in vivo
[3] = test system: human monocytes; experiment: FACS analysis of human monocytes stimulated with AT1002; type: cell-based; settings: 18 hours
[4] = test system: human macrophages; experiment: FACS analysis of human macrophages stimulated with AT1002; type: cell-based
[5] = AT1002 20 micrograms/ml and 1 microgram/ml

| Substance | range of anti-TT IgG titer [1] | geometric mean titers of anti-TT IgA in vaginal secretions [2] | geometric mean titers of anti-TT serum IgA [2] | geometric mean titers of anti-TT serum IgG [2] | relatively most effective AT1002 dose (anti-TT serum IgG) [2] [nmol] | protection against tetanus toxin challenge (paralysis and death) [1] | expression of CD80 (B7-1) on monocytes [3] | expression of CD86 (B7.2) on monocytes [3] | membrane expression of HLA-DR on monocytes [3, 5] | membrane expression of HLA-I on monocytes [3, 5] | expression of CD40 on macrophages ([4]; 18 hours) | membrane expression of CD86 on macrophages ([4]; 18 hours) | membrane expression of HLA-DR on macrophages ([4]; 18 hours) | membrane expression of HLA-I on macrophages ([4]; 18 hours) | expression of CD80 on macrophages ([4]; 18 hours, not reported in the figure) | upregulation of HLA-I and HLA-DR molecules compared with LPS ([4]; macrophages, LPS positive control) |
| --- | --- | --- | --- | --- | --- | --- | --- | --- | --- | --- | --- | --- | --- | --- | --- | --- |
| Tetanus toxoid [TT alone] | 256-4,096 | – | – | – | – | – | – | – | – | – | – | – | – | – | – | – |
| FCIGRL [AT1002] | – | induces IgA against the co-administered antigen in a mucosal district far from the site of immunization | induces serum IgA against the co-administered antigen | higher as compared to those of animals immunized with TT alone; also recorded: higher than those observed after four doses | 30 | all protected | not upregulated | not upregulated | upregulates | upregulates | upregulates | strongly upregulates | strongly upregulates | strongly upregulates | also upregulated | more efficient than LPS |
